The IC50 is the concentration that gives 50% inhibition.

These results are taken from patent US5750555A, “Bis-indolyl maleinimide or indolopyrrolo carbazole containing an amino acid as PKC inhibitors” (Goedecke Aktiengesellschaft, priority 1992, dated 1998).

One test addresses protein kinase C (PKC). The test is described as follows: Enzyme test PKC with peptide substrate [Ser^25] PKC (19-31), phosphorus^32 phosphate incorporation. It counts as biochemical, rat. On the procedure: The enzyme protein kinase C (PKC) is purified from rat brain. Its activity is determined by way of the incorporation of phosphorus ^32 -labelled phosphate into a synthetic peptide which is derived from the PKC "pseudosubstrate" sequence (arnino acids 19 to 31 of the PKC sequence with alanine in position 25 substituted by serine). A reaction batch of 200 μL contains the following components: 50 mM Tris HCl, pH 7.5, 5 mM MgCl2, 1 mM DTT, 4 μM free Ca^2+, 10 μM ATP, 1 μg phosphatidylserine, 0.2 μg 1,2-diolein, as well as 0.3 μg peptide substrate. The batch is preincubated for 4 minutes at 30° C. and the reaction then started by the addition of 5 nm PKC. After incubation for 5 minutes at 30° C., the reaction is stopped with 0.73% H3 PO4, and the sample then filtered over a nitrocellulose filter (0.1 μm pore size). The phosphate incorporation is determined by means of Cerenkov counting in a scintillation counter. […]

Test [1] has as its target Myosin Light Chain Kinase. The test is described as follows: Inhibition of myosin light chain kinase (selectivity test). To be noted: Table 2; for IC50: Myosin Light Chain Kinase, read-out: Inhibition of the Protein Kinases IC50: MLC Kinase; for Ratio of IC50 MLC Kinase/IC50 C Kinase: selectivity ratio MLC Kinase over PKC. The class given is biochemical. On the procedure:
The selectivity of these compounds with regard to other kinases, such as myosin light chain kinase, was tested on the basis of some examples. These values are set out in the following Table 2.

The mark [2] stands for this setting: Table 1, PKC purified from rat brain, 10 μM ATP, pH 7.5, 30° C., 5 minutes, read-out: Inhibition IC50, Enzyme Test PKC With Peptide Substrate [Ser^25] PKC (19-31).
Where [3] appears, read: Table 2, PKC with peptide substrate [Ser^25] PKC (19-31), read-out: Inhibition of the Protein Kinases IC50: PKC.

Where two headings read alike, the source gives them in different places. Where a SMILES comes first, the peptide text is derived from it. The star is where a group is joined. X1 = Cn1cc(C2=C(c3cn(CCC(=O)*)c4ccccc34)C(=O)NC2=O)c2ccccc21 Bounds are passed on as bounds.

With `C[C@H](N)C(=O)NCCCn1c2ccccc2c2c3c(c4c5ccccc5n(C)c4c21)C(=O)NC3=O` [Example 8, 12-[2-(3-L-Alanyl)-aminopropyl)-6,7,12,13-tetrahydro-13-methyl-5,7-dioxo-5H-indolo[2,3-a]pyrrolo[3,4-c]-carbazole], the IC50 at protein kinase C (PKC) (setting [2]) amounted to 38 nM. As for `Cn1cc(C2=C(c3cn(CCCNC(=O)CCCCNC(=O)[C@@H](N)CO)c4ccccc34)C(=O)NC2=O)c2ccccc21` [Example 3, 2-[(1-Methyl)-1H-indol-3-yl]-3-[1-[3-(5-L-serylaminopentanoyl)-aminopropyl)-1H-indol-3-yl)-maleinimide], on protein kinase C (PKC) (setting [2]), the 50% inhibitory concentration (IC50) came out at 61 nM. `C[C@H](N)C(=O)NCCCCCn1c2ccccc2c2c3c(c4c5ccccc5n(C)c4c21)C(=O)NC3=O` [Example 10a, 12-[2-(5-L-alanyl)-aminopentyl]-6,7,12,13-tetrahydro-13-methyl-5,7-dioxo-5H-indolo[2,3-a]pyrrolo-[3,4-c]carbazole]: the IC50 at protein kinase C (PKC) (setting [2]) turned out to be 53 nM. For `C[C@H](NC(=O)CCn1cc(C2=C(c3cn(C)c4ccccc34)C(=O)NC2=O)c2ccccc21)C(=O)O` [Example 5, 3-[3-[4-(1-Methylindol-3-yl)-1H-pyrrole-2,5-dion-3-yl]-indol-1-yl)-propionyl-L-alanine], the IC50 at protein kinase C (PKC) (setting [2]) stood at 580 nM. Regarding `C[C@H](N)C(=O)NCCC(=O)NCCCn1cc(C2=C(c3cn(C)c4ccccc34)C(=O)NC2=O)c2ccccc21` [Example 4a, 2-[(1-Methyl)-1H-indol-3-yl]-3-[1-[3-(L-alanyl-β-alanyl)-aminopropyl]-1H-indol-3-yl)-maleinimide], the half-inhibitory concentration (IC50) at protein kinase C (PKC) (setting [2]) amounted to 18 nM.

As for `C[C@H](NC(=O)CNC(=O)CNC(=O)CCn1cc(C2=C(c3cn(C)c4ccccc34)C(=O)NC2=O)c2ccccc21)C(N)=O` [Example 7b, 3-[3-[4-(1-methylindol-3-yl)-1H-pyrrole-2,5-dion-3-yl]-indol-1-yl)-propionylglycylglycyl-L-alaninamide], the IC50 at protein kinase C (PKC) (setting [2]) was more than 100 nM. `Cn1cc(C2=C(c3cn(CCCCNC(=O)[C@@H](N)CCCNC(=N)N)c4ccccc34)C(=O)NC2=O)c2ccccc21` [Example 2b, 2-[(1-Methyl)-1H-indol-3-yl]-3-[1-(4-L-arginylaminobutyl)-1H-indol-3-yl]-maleinimide]: the concentration for half-maximal inhibition (IC50) at protein kinase C (PKC) (setting [2]) came to 220 nM. For the compound `C[C@H](N)C(=O)NCCCCCCCCCn1cc(C2=C(c3cn(C)c4ccccc34)C(=O)NC2=O)c2ccccc21` [Example 2d, 2-[(l-Methyl)-1H-indol-3-yl]-3-[1-(9-L-alanylaminononyl)-1H-indol-3-yl)-maleinimide], the concentration for half-maximal inhibition (IC50) on protein kinase C (PKC) (setting [2]) was more than 1000 nM. As to `C[C@H](N)C(=O)NCCCCCn1cc(C2=C(c3cn(C)c4ccccc34)C(=O)NC2=O)c2ccccc21` [Example 2c, 2-[(1-Methyl)-1H-indol-3-yl]-3-[1-(5-L-alanylaminopentyl)-1H-indol-3-yl]-maleinimide], the half-inhibitory concentration (IC50) on protein kinase C (PKC) (setting [2]) is more than 100 nM. Regarding `C[C@H](N)C(=O)NCCCCCCCCn1cc(C2=C(c3cn(C)c4ccccc34)C(=O)NC2=O)c2ccccc21` [Example 2f, 2-[(1-Methyl)-1H-indol-3-yl]-3-[1-(9-L-alanylaminooctyl)-1H-indol-3-yl)-maleinimide], the half-maximal inhibitory concentration (IC50) at protein kinase C (PKC) (setting [2]) was 330 nM. On to `C[C@H](N)C(=O)NCC(=O)NCCCn1cc(C2=C(c3cn(C)c4ccccc34)C(=O)NC2=O)c2ccccc21` [Example 4, 2-[(1-Methyl)-1H-indol-3-yl)-3-[1-[3-(L-alanylglycyl)-aminopropyl]-1H-indol-3-yl]], for which, on protein kinase C (PKC) (setting [2]), the IC50 is 36 nM.

For the compound `Cn1cc(C2=C(c3cn(CCCNC(=O)[C@@H](N)CO)c4ccccc34)C(=O)NC2=O)c2ccccc21` [Example 1, 2-[(1-Methyl)-1H-indol-3-yl]-3-(1-(3-L-serylaminopropyl)-1H-indol-3-yl)-maleinimide], the figures for the IC50 (at protein kinase C (PKC) (setting [2]); at protein kinase C (PKC) (setting [3]); in test [1]) were 14 nM, 14 nM and 4600 nM, respectively. Also, the “Ratio of IC50 MLC Kinase/IC50 C Kinase” value in test [1] was found to be 328.

For the compound `Cn1cc(C2=C(c3cn(CCC(=O)NCC(=O)NCC(=O)N[C@@H](CO)C(N)=O)c4ccccc34)C(=O)NC2=O)c2ccccc21` [Example 7c, 3-[3-[4-(1-methylindol-3-yl)-1H-pyrrole-3,5-dion-3-yl]-indol-1-yl]-propionylglycylglycyl-L-serylamide], the concentration for half-maximal inhibition (IC50) on protein kinase C (PKC) (setting [2]) was found to be 200 nM. As for `C[C@@H](N)C(=O)NCCCn1cc(C2=C(c3cn(C)c4ccccc34)C(=O)NC2=O)c2ccccc21` [Example 2, 2-[(1-Methyl)-1H-indol-3-yl)-3-[1-(3-D-alanylaminopropyl)-1H-indol-3-yl]-maleinimide], the concentration for half-maximal inhibition (IC50) at protein kinase C (PKC) (setting [2]) is 28 nM.

On to `Cn1cc(C2=C(c3cn(CCCNC(=O)CCN)c4ccccc34)C(=O)NC2=O)c2ccccc21` [Example 1b, 2-[(1-Methyl)-1H-indol-3-yl]-3-[1-(3-β-alanylaminopropyl)-1H-indol-3-yl]-maleinimide], for which the 50% inhibitory concentration (IC50) is 23 nM at protein kinase C (PKC) (setting [2]), 23 nM at protein kinase C (PKC) (setting [3]) and 2400 nM in test [1]. Besides, the “Ratio of IC50 MLC Kinase/IC50 C Kinase” value in test [1] amounted to 104. On to `C[C@H](N)C(=O)NCCCCn1c2ccccc2c2c3c(c4c5ccccc5n(C)c4c21)C(=O)NC3=O` [Example 10, 12-[2-(4-L-Alanyl)-aminobutyl]-6,7,12,13-tetrahydro-13-methyl-5,7-dioxo-5H-indolo[2,3-a]pyrrolo[3,4-c]-carbazole], for which the IC50 on protein kinase C (PKC) (setting [2]) was 9.6 nM. `C[C@H](NC(=O)CCn1cc(C2=C(c3cn(C)c4ccccc34)C(=O)NC2=O)c2ccccc21)C(=O)NCC(=O)N[C@@H](CCCCN)C(N)=O` [Example 7, 3-[3-[4-(1-Methylindol-3-yl)-1H-pyrrole-2,5-dion-3-yl]-indol-1-yl)-propionyl-L-alanylglycyl-L-lysinamide]: on protein kinase C (PKC) (setting [2]), the half-maximal inhibitory concentration (IC50) stood at 230 nM. On the same count and under the same terms, under `C[C@H](NC(=O)[C@H](Cc1ccccc1)NC(=O)[C@H](CCCNC(=N)N)NC(=O)[C@H](CC(N)=O)NC(=O)[C@H](CCCCN)NC(=O)CCn1cc(C2=C(c3cn(C)c4ccccc34)C(=O)NC2=O)c2ccccc21)C(N)=O` [Example 7a, 3-[3-[4-(1-methylindol-3-yl)-1H-pyrrole-2,5-dion-3-yl]-indol-1-yl)-propionyl-L-lysyl-L-asparaginyl-L-arginyl-L-phenylalanyl-L-alaninamide] (X1-KNRFA-NH2) stands more than 100 nM; under `C[C@H](N)C(=O)NCCCCn1cc(C2=C(c3cn(C)c4ccccc34)C(=O)NC2=O)c2ccccc21` [Example 2a, 2-[(1-Methyl)-1H-indol-3-yl]-3-[1-(4-L-alanylaminobutylyl)-1H-indol-3-yl)-maleinimide], 25 nM.

With `Cn1cc(C2=C(c3cn(CCCN)c4ccccc34)C(=O)NC2=O)c2ccccc21` [A, 3[1(3-aminopropyl)-3-indolyl)-4-(1-methyl-3-indolyl)-1H-pyrrole-2,5-dione, reference compound], the IC50 at protein kinase C (PKC) (setting [3]) worked out at 130 nM. Besides, in test [1], the IC50 was 1300 nM and the “Ratio of IC50 MLC Kinase/IC50 C Kinase” value is on record as 10. With “2-[(1-Methyl)-1H-indol-3-yl]-3-[1-(3-β-alanylamino-propyl)-1H-indol-3-yl]-maleinimide [Example 1a]”, the IC50 came to 6.3 nM at protein kinase C (PKC) (setting [2]), 6.3 nM at protein kinase C (PKC) (setting [3]) and 1900 nM in test [1]. In addition, the “Ratio of IC50 MLC Kinase/IC50 C Kinase” value in test [1] is reported as 302.

As to “12-[2-(L-Alanyl-L-arginyl)-aminopropyl]-6,7,12,13-tetrahydro-13-methyl-5,7- dioxo-5H-indolo[2,3-a]pyrrolo-[3,4-c]carbazole [Example 9]”, the IC50 on protein kinase C (PKC) (setting [2]) was 190 nM.

Turning to `C[C@H](NC(=O)CNC(=O)[C@H](CO)NC(=O)CCn1cc(C2=C(c3cn(C)c4ccccc34)C(=O)NC2=O)c2ccccc21)C(N)=O` [Example 7d, 3-[3-[4-(1-methylindol-3-yl)-1H-pyrrole-2,5-dion-3-yl)-indol-1-yl)-propionyl-L-serylglycyl-L-alaninamide], at protein kinase C (PKC) (setting [2]), the IC50 was more than 1000 nM. The same measure, in the same setting: under `Cn1cc(C2=C(c3cn(CCCCCCCCCNC(=O)[C@@H](N)CO)c4ccccc34)C(=O)NC2=O)c2ccccc21` [Example 2e, 2-[(1-Methyl)-1H-indol-3-yl]-3-[1-(9-L-serylaminononyl)-1H-indol-3-yl]-maleinimide] stands more than 1000 nM.
